From patent US11066369B2, “N-(pyridin-2-yl)pyridine-sulfonamide derivatives and their use in the treatment of disease” (Novartis AG, priority 2016, dated 2021)
pEC50: −log10 of the molar value.

Columns and labels:
[1] = biological target: T1, delF508-CFTR (Homo sapiens, UniProt P13569, DEL508-508); assay: Measurement of delF508-CFTR functional activity in primary human bronchial epithelial cells (HBECs) using Multi-Transepithelial Clamp Circuit (MTECC-24) assay; assay type: cell-based; conditions: primary CF HBECs; for MTECC24 CFHBEC- Amax %: test compound added 24h before assay plus potentiator, relative to reference combination (2 μM corrector + 0.5 μM potentiator); for pEC50: test compound added 24h before assay, in the presence of potentiator, mean of at least two replicates, read-out: MTECC24 CFHBEC- EC50
T1 construct: functional activity of the CFTR channel (Chloride ion transport) in patient derived primary human bronchial epithelial cells; host or cells: patient-derived primary human bronchial epithelial cells (delF508-CFTR)
Summary of the method: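 Compound tested as 10-point, 1-in-3 concentration response (0.1% or 0.2% DMSO), 24 h basolateral pre-incubation, then re-added to both sides. MTECC-24 measured Ieq in ALI-differentiated primary delF508 bronchial cells after amiloride, forskolin activation, potentiator and INH-172 block; data normalized to DMSO baseline, EC50 fitted.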

[2] = biological target: T2, horseradish peroxidase (HRP) tagged delF508-CFTR (Homo sapiens, UniProt P13569, DEL508-508); assay: Measurement of delF508-CFTR-HRP surface expression in CFBE41o- cells; assay type: cell-based; conditions: delF508-CFTR-HRP surface expression, CFBE41o- cells; for Emax: read-out: DelF508-CFTR-HRP Amax %; for pEC50: read-out: DelF508-CFTR-HRP EC50;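 as to DelF508-CFTR-HRP Amax %: percent efficacy relative to reference corrector lumacaftor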
T2 construct: expressed in transfected cells
Summary of the method: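 Surface-trafficked delF508-CFTR detected via extracellular HRP tag, read as luminescence from a membrane-impermeant substrate in CFBE41o- cells. Cells pre-induced 48h with 500 ng/mL doxycycline, then exposed 24h at 37° C to a 10-point, 3-fold dilution series from 10 μM (DMSO ≤0.5%). Triplicate dose-responses fitted logistically for EC50 after per-plate normalization; fold change versus reference compound.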

T2 sequence (P13569 with tags, fused parts or gaps DEL508-508): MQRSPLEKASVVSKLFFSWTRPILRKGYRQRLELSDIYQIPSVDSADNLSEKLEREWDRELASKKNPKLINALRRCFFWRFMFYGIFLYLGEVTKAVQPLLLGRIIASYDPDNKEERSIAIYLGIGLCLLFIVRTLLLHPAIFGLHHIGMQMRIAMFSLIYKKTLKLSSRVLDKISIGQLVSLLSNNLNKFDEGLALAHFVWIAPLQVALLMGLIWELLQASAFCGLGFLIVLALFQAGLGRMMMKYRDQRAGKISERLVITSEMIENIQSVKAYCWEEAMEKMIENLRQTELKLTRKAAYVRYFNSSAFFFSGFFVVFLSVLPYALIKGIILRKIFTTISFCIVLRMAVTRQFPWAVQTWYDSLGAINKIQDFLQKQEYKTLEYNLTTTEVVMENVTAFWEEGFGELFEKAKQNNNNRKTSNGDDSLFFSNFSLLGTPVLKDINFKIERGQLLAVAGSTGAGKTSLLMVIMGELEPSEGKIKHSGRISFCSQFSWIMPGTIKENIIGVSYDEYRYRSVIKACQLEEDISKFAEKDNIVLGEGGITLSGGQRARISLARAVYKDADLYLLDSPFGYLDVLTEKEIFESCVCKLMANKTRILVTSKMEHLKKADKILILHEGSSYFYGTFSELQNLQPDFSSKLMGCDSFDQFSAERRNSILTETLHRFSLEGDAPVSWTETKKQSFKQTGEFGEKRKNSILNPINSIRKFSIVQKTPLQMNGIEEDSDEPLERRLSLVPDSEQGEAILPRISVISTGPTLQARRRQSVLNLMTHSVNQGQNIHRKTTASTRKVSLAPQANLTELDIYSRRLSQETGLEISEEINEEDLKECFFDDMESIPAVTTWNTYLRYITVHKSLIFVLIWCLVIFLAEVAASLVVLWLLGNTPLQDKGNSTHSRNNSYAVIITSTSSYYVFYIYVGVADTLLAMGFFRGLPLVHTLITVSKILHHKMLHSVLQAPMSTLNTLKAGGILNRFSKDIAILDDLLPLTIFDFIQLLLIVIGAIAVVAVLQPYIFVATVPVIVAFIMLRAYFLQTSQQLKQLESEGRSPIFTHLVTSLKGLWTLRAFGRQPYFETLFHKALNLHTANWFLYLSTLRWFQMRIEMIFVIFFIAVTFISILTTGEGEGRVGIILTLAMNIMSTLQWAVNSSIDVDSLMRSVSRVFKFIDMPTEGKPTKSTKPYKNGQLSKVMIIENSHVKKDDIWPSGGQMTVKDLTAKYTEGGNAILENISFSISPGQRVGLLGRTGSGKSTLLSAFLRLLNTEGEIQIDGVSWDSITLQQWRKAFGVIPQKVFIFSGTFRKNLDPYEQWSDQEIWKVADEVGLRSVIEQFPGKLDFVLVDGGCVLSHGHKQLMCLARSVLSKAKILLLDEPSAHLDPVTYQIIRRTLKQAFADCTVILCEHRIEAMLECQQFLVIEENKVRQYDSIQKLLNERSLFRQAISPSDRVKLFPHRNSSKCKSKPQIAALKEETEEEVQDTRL
T1 sequence (P13569 with tags, fused parts or gaps DEL508-508): as above

| Structure (SMILES) | MTECC24 CFHBEC- Amax % [1] [%] | pEC50 [1] | Emax [2] [%] | pEC50 [2] |
| --- | --- | --- | --- | --- |
| O=S(=O)(Nc1ccc(C(F)(F)F)c(-c2ccccc2Cl)n1)c1cccc(N2CC(O)C2)n1 [Example 222, N-(6-(2-chlorophenyl)-5-(trifluoromethyl)pyridin-2-yl)-6-(3-hydroxyazetidin-1-yl)pyridine-2-sulfonamide] | 61.1 | 7.97 | 427 | 5.77 |
| Cc1ccc(C(F)(F)F)cc1-c1nc(NS(=O)(=O)c2cccc(N3CC(O)C3)n2)ccc1Cl [Example 223, N-(5-chloro-6-(2-methyl-5-(trifluoromethyl)phenyl)pyridin-2-yl)-6-(3-hydroxyazetidin-1-yl)pyridine-2-sulfonamide] | 59.9 | 7.84 | 427 | 5.72 |
| O=S(=O)(Nc1ccc(C(F)(F)F)c(-c2ccccc2C(F)(F)F)n1)c1cccc(N2CC(O)C2)n1 [Example 224, 6-(3-hydroxyazetidin-1-yl)-N-(5-(trifluoromethyl)-6-(2-(trifluoromethyl)phenyl)pyridin-2-yl)pyridine-2-sulfonamide] | 63.9 | 8.31 | 499 | 5.86 |
| O=S(=O)(Nc1ccc(C(F)(F)F)c(-c2ccc(F)cc2Cl)n1)c1cccc(N2CC(O)C2)n1 [Example 225, N-(6-(2-chloro-4-fluorophenyl)-5-(trifluoromethyl)pyridin-2-yl)-6-(3-hydroxyazetidin-1-yl)pyridine-2-sulfonamide] | 87.7 | 7.75 | 361 | 5.56 |
| COc1ccc(Cl)c(-c2nc(NS(=O)(=O)c3cccc(N4CC(O)C4)n3)ccc2C(F)(F)F)c1 [Example 226, N-(6-(2-chloro-5-methoxyphenyl)-5-(trifluoromethyl)pyridin-2-yl)-6-(3-hydroxyazetidin-1-yl)pyridine-2-sulfonamide] | 83.5 | 7.89 | 721 | 5.62 |
| O=S(=O)(Nc1ccc(Cl)c(-c2ccccc2Cl)n1)c1cccc(N2CC(O)C2)n1 [Example 227, N-(5-chloro-6-(2-chlorophenyl)pyridin-2-yl)-6-(3-hydroxyazetidin-1-yl)pyridine-2-sulfonamide] | 104.9 | 7.31 | 403 | 5.57 |
| COc1ccc(Cl)c(-c2nc(NS(=O)(=O)c3cccc(N4CC(O)C4)n3)ccc2Cl)c1 [Example 228, N-(5-chloro-6-(2-chloro-5-methoxyphenyl)pyridin-2-yl)-6-(3-hydroxyazetidin-1-yl)pyridine-2-sulfonamide] | 87.0 | 7.42 | 405 | 5.52 |
| O=S(=O)(Nc1ccc(Cl)c(-c2cccc(F)c2Cl)n1)c1cccc(N2CC(O)C2)n1 [Example 229, N-(5-chloro-6-(2-chloro-3-fluorophenyl)pyridin-2-yl)-6-(3-hydroxyazetidin-1-yl)pyridine-2-sulfonamide] | 69.0 | 7.27 | 341 | 5.37 |
| O=S(=O)(Nc1ccc(C(F)(F)F)c(-c2cccc(F)c2Cl)n1)c1cccc(N2CC(O)C2)n1 [Example 230, N-(6-(2-chloro-3-fluorophenyl)-5-(trifluoromethyl)pyridin-2-yl)-6-(3-hydroxyazetidin-1-yl)pyridine-2-sulfonamide] | 60.6 | 7.68 | 513 | 5.53 |
| Cc1cccc(C)c1-c1nc(NS(=O)(=O)c2cccc(N3CC(O)C3)n2)ccc1Cl [Example 231, N-(5-chloro-6-(2,6-dimethylphenyl)pyridin-2-yl)-6-(3-hydroxyazetidin-1-yl)pyridine-2-sulfonamide] | 71.8 | 7.69 | 465 | 5.94 |
| Cc1c(F)cccc1-c1nc(NS(=O)(=O)c2cccc(N3CC(O)C3)n2)ccc1Cl [Example 232, N-(5-chloro-6-(3-fluoro-2-methylphenyl)pyridin-2-yl)-6-(3-hydroxyazetidin-1-yl)pyridine-2-sulfonamide] | 72.3 | 7.50 | 349 | 5.77 |
| Cc1ccccc1-c1nc(NS(=O)(=O)c2cccc(N3CC(O)C3)n2)ccc1C(F)(F)F [Example 233, 6-(3-hydroxyazetidin-1-yl)-N-(6-(o-tolyl)-5-(trifluoromethyl)pyridin-2-yl)pyridine-2-sulfonamide] | 85.3 | 8.28 | 586 | 5.82 |
| Cc1ccc(F)cc1-c1nc(NS(=O)(=O)c2cccc(N3CC(O)C3)n2)ccc1Cl [Example 234, N-(5-chloro-6-(5-fluoro-2-methylphenyl)pyridin-2-yl)-6-(3-hydroxyazetidin-1-yl)pyridine-2-sulfonamide] | 84.0 | 7.95 | 513 | 5.71 |
| Cc1ccc(F)cc1-c1nc(NS(=O)(=O)c2cccc(N3CC(O)(CO)C3)n2)ccc1Cl [Example 235, N-(5-chloro-6-(5-fluoro-2-methylphenyl)pyridin-2-yl)-6-(3-hydroxy-3-(hydroxymethyl)azetidin-1-yl)pyridine-2-sulfonamide] | 57.6 | 6.74 | 203 | 5.70 |
| CC1(C(=O)O)CCN(c2cccc(S(=O)(=O)Nc3ccc(C(F)(F)F)c(-c4ccccc4C4CC4)n3)n2)CC1 [Example 237, 1-(6-(N-(6-(2-cyclopropylphenyl)-5-(trifluoromethyl)pyridin-2-yl)sulfamoyl)pyridin-2-yl)-4-methylpiperidine-4-carboxylic Acid] | 55.4 | 8.37 | 544 | 5.84 |

Further lines, results first:

| MTECC24 CFHBEC- Amax % [1] [%] | pEC50 [1] | Emax [2] [%] | pEC50 [2] | Structure (SMILES) |
| --- | --- | --- | --- | --- |
| 59.0 | 7.71 | 426 | 5.46 | CC1(C(=O)O)CCN(c2cccc(S(=O)(=O)Nc3ccc(C(F)(F)F)c(-c4ccccc4Cl)n3)n2)CC1 [Example 238, 1-(6-(N-(6-(2-chlorophenyl)-5-(trifluoromethyl)pyridin-2-yl)sulfamoyl)pyridin-2-yl)-4-methylpiperidine-4-carboxylic Acid] |
| 48.9 | 7.91 | 510 | 5.54 | COc1ccc(Cl)c(-c2nc(NS(=O)(=O)c3cccc(N4CCC(C)(C(=O)O)CC4)n3)ccc2C(F)(F)F)c1 [Example 241, 1-(6-(N-(6-(2-chloro-5-methoxyphenyl)-5-(trifluoromethyl)pyridin-2-yl)sulfamoyl)pyridin-2-yl)-4-methylpiperidine-4-carboxylic Acid] |
| 63.2 | 7.69 | 468 | 5.53 | CC1(C(=O)O)CCN(c2cccc(S(=O)(=O)Nc3ccc(C(F)(F)F)c(-c4cccc(F)c4Cl)n3)n2)CC1 [Example 242, 1-(6-(N-(6-(2-chloro-3-fluorophenyl)-5-(trifluoromethyl)pyridin-2-yl)sulfamoyl)pyridin-2-yl)-4-methylpiperidine-4-carboxylic Acid] |
| 48.0 | 7.37 | 246 | 5.46 | CC1(C(=O)O)CCN(c2cccc(S(=O)(=O)Nc3ccc(Cl)c(-c4cccc(F)c4Cl)n3)n2)CC1 [Example 245, 1-(6-(N-(5-chloro-6-(2-chloro-3-fluorophenyl)pyridin-2-yl)sulfamoyl)pyridin-2-yl)-4-methylpiperidine-4-carboxylic Acid] |
| 56.3 | 7.29 | 875 | 5.75 | COC(=O)C1CCN(c2cccc(S(=O)(=O)Nc3ccc(Cl)c(-c4c(C)cccc4C)n3)n2)CC1 [Example 246, methyl 1-(6-(N-(5-chloro-6-(2,6-dimethylphenyl)pyridin-2-yl)sulfamoyl)pyridin-2-yl)piperidine-4-carboxylate] |
| 57.0 | 6.72 | 493 | 5.51 | Cc1cccc(C)c1-c1nc(NS(=O)(=O)c2cccc(N3CCC(C(=O)O)CC3)n2)ccc1Cl [Example 247, 1-(6-(N-(5-chloro-6-(2,6-dimethylphenyl)pyridin-2-yl)sulfamoyl)pyridin-2-yl)piperidine-4-carboxylic Acid] |
| 68.2 | 8.18 | 568 | 5.79 | CCC1(C(=O)O)CCN(c2cccc(S(=O)(=O)Nc3ccc(Cl)c(-c4c(C)cccc4C)n3)n2)CC1 [Example 248, 1-(6-(N-(5-chloro-6-(2,6-dimethylphenyl)pyridin-2-yl)sulfamoyl)pyridin-2-yl)-4-ethylpiperidine-4-carboxylic Acid] |
| 79.6 | 8.17 | – | 5.82 | CCOC(=O)C1(C)CCN(c2cccc(S(=O)(=O)Nc3ccc(Cl)c(-c4c(C)cccc4C)n3)n2)CC1 [Example 249, ethyl 1-(6-(N-(5-chloro-6-(2,6-dimethylphenyl)pyridin-2-yl)sulfamoyl)pyridin-2-yl)-4-methylpiperidine-4-carboxylate] |
